For assay [1], the target named is T1, C-C chemokine receptor type 4 (Homo sapiens, UniProt P51679). Note: in other assays of this panel Not Active means under 50% inhibition at 10 µM.
T1 sequence (P51679 whole entry): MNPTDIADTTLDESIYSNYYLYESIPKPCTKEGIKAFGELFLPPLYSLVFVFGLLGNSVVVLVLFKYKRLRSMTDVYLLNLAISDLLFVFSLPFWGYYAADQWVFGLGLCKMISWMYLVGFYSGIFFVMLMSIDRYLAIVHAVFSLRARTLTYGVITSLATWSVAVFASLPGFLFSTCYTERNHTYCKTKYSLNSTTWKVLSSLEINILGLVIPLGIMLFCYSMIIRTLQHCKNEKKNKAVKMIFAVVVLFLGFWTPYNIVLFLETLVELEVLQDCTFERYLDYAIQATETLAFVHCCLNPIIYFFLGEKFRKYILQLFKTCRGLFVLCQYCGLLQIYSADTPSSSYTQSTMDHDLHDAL
Format: cell membranes, Chem-1, Membrane. To be noted: chem-1.

Assay [2] concerns the target T2, Nitric oxide synthase, inducible (Mus musculus, UniProt P29477).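 Note: inhibition of iNOS enzyme activity measured with L-arginine as substrate; in other assays of this panel Not Active means under 50% inhibition at 10 µM.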
T2 sequence (P29477 whole entry): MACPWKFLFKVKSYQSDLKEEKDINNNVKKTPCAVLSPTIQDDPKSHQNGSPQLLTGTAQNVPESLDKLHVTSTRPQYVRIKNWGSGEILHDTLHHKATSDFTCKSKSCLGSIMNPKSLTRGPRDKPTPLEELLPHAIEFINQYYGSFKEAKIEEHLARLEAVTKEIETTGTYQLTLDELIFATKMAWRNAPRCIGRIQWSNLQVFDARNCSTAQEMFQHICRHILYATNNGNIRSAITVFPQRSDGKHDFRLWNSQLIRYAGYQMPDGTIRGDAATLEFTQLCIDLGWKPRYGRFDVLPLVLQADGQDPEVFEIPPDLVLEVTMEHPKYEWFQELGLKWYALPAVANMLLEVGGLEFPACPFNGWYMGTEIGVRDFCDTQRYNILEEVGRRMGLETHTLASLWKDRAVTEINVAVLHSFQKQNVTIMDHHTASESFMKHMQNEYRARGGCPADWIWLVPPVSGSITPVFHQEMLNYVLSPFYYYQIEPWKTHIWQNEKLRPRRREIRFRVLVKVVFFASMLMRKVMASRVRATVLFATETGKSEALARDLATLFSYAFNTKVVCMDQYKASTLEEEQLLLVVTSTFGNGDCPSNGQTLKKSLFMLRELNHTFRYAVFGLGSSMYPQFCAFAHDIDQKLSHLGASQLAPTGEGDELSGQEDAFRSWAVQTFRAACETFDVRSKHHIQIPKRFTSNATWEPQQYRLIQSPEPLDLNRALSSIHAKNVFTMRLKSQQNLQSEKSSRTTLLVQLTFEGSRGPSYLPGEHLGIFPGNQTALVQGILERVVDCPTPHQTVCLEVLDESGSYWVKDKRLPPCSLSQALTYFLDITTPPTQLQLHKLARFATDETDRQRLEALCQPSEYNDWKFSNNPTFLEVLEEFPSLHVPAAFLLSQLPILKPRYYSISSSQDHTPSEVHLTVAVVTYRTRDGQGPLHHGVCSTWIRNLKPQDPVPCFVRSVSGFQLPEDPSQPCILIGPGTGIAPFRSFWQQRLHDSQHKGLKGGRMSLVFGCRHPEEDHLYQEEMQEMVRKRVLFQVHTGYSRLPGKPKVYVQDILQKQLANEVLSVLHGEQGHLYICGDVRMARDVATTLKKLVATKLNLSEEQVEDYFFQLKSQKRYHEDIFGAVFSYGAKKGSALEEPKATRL
Further details: species or system Escherichia coli.

Assay [3] concerns the target T3, Muscarinic acetylcholine receptor M5 (Homo sapiens, UniProt P08912). Note: in other assays of this panel Not Active means under 50% inhibition at 10 µM.
T3 sequence (P08912 whole entry): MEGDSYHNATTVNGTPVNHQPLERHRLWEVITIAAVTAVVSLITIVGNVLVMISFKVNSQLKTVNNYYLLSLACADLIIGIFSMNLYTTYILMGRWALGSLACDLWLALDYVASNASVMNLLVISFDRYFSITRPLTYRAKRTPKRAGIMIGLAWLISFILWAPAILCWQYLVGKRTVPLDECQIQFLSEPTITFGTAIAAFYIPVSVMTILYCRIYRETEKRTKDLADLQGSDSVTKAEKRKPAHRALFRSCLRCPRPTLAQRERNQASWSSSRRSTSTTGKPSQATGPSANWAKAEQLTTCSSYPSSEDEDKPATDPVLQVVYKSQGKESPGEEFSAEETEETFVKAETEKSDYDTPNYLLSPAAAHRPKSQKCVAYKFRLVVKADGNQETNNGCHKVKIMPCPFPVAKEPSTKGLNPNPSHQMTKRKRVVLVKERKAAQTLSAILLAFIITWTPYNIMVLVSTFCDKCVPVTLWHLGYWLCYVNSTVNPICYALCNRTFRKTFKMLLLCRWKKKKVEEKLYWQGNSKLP
The format is cell membranes, CHO-K1, Membrane. As to conditions: cho-k1.

Assay [4] addresses T4, Type-2 angiotensin II receptor (Homo sapiens, UniProt P50052).
T4 sequence (P50052 whole entry): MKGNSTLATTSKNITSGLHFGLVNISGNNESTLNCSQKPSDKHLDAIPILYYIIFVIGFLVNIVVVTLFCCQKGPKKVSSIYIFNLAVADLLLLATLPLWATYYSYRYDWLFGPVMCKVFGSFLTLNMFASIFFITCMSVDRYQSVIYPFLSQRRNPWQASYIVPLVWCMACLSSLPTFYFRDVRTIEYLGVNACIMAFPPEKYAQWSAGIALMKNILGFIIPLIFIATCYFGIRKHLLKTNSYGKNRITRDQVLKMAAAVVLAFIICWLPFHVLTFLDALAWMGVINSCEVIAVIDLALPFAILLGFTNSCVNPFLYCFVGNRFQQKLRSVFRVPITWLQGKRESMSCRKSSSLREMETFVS
Format: cell-based. As to conditions: cho-k1.

Assay [5] deals with Tyrosine-protein kinase Fyn (Homo sapiens, UniProt P06241). Nature of the assay: biochemical. The format is cell-based, Insect cells.
The target in assay [6] is Delta-type opioid receptor (Homo sapiens, UniProt P41143). Format: cell membranes, HEK293, Membrane. As to conditions: hek293. Note: in other assays of this panel Not Active means under 50% inhibition at 10 µM.
A short description of assay [7]: DRUGMATRIX: Interleukin IL-1 radioligand binding (ligand: [125I] interleukin 1beta). The format is cell membranes, Membrane. To be noted: nih3t3; Not Active = under 50% inhibition at 10 µM.

The source of these data is ChEMBL document CHEMBL1909046, “DrugMatrix in vitro pharmacology data”.

Delta-type opioid receptor, sequence (P41143 whole entry): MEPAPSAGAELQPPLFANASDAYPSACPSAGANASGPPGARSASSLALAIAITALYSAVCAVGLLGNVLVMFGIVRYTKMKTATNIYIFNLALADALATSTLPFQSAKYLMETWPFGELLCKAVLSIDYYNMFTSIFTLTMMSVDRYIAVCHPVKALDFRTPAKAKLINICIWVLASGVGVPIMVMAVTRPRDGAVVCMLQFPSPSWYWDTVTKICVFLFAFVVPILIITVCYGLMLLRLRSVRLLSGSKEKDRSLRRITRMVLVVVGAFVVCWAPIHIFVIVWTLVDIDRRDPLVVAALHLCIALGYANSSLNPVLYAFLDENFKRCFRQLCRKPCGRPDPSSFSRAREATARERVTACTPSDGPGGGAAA
Tyrosine-protein kinase Fyn, sequence (P06241 whole entry): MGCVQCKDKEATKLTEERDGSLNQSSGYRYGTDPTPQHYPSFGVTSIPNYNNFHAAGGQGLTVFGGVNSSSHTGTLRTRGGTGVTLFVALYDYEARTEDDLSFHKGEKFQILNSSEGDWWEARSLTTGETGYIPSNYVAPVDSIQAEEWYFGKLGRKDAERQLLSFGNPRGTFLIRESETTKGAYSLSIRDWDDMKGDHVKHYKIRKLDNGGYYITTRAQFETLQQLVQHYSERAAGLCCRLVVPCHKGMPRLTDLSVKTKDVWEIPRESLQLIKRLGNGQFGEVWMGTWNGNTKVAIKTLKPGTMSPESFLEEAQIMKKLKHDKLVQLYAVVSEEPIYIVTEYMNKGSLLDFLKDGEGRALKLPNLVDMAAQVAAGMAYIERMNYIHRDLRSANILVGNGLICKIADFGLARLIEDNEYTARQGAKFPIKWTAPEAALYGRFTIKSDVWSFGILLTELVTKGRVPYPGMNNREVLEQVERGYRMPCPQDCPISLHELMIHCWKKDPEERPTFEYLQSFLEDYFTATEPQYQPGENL

Broadly, the IC50 is the concentration at which inhibition is half-maximal. Turning to `CC(Cl)(Cl)Cl` [TRICHLOROETHANE], the IC50 entry in assay [1], in assay [2], in assay [3], in assay [4], in assay [5] (insect cells) and in assay [6] was “Not Active” each time. For the same compound, in assay [7], the IC50 result is “Not Active”. For the same compound, in assay [7], the Ki entry was “Not Active”.
`C=CCc1ccc2c(c1)OCO2` [SAFROLE]: the IC50 entry in assay [1], in assay [2], in assay [3], in assay [4], in assay [5] (insect cells) and in assay [6] was “Not Active” in each case. For the same compound, the IC50 entry in assay [7] was “Not Active”. The Ki entry in assay [7] is “Not Active”.
Take `CN1C(=O)OC(C)(C)C1=O` [TRIMETHADIONE]: the IC50 entry in assay [1], in assay [2], in assay [3], in assay [4], in assay [5] (insect cells) and in assay [6] was “Not Active” in each case. Besides, in assay [7], the IC50 result is recorded as “Not Active”. Besides, the Ki result in assay [7] was “Not Active”.
As for `CC(O)C(=O)O` (stereo not given) [LACTIC ACID], the IC50 result in assay [1], in assay [2], in assay [3], in assay [4], in assay [5] (insect cells) and in assay [6] was “Not Active” in each case. For the same compound, the 50% inhibitory concentration (IC50) result in assay [7] is given as “Not Active”. For the same compound, in assay [7], the Ki result was “Not Active”.
As to `CS(=O)(=O)c1ccc(C2=C(c3ccccc3)C(=O)OC2)cc1` [ROFECOXIB], the IC50 entry in assay [1], in assay [2], in assay [3], in assay [4], in assay [5] (insect cells) and in assay [6] was “Not Active” in each case. Moreover, in assay [7], the IC50 result is listed as “Not Active”. In addition, the Ki entry in assay [7] is “Not Active”.
Turning to `Cc1nnc(NS(=O)(=O)c2ccc(N)cc2)s1` [SULFAMETHIZOLE], the IC50 entry in assay [1], in assay [2], in assay [3], in assay [4], in assay [5] (insect cells) and in assay [6] was “Not Active” each time. The IC50 result in assay [7] is listed as “Not Active”. Also, the Ki entry in assay [7] was “Not Active”.
Regarding `CC(=O)O[C@]1(C(C)=O)CC[C@H]2[C@@H]3C[C@H](C)C4=CC(=O)CC[C@]4(C)[C@H]3CC[C@@]21C` [MEDROXYPROGESTERONE ACETATE], the IC50 result in assay [1], in assay [2], in assay [3], in assay [4], in assay [5] (insect cells) and in assay [6] was “Not Active” in each case. The IC50 result in assay [7] is on record as “Not Active”. Also, in assay [7], the Ki entry was “Not Active”.
Take `CC1(C)[C@H](C(=O)O)N2C(=O)C[C@H]2S1(=O)=O` [SULBACTAM]: the IC50 result in assay [1], in assay [2], in assay [3], in assay [4], in assay [5] (insect cells) and in assay [6] was “Not Active” each time. Moreover, the IC50 entry in assay [7] is “Not Active”. In addition, the Ki result in assay [7] is “Not Active”.
In the case of `O=C(O)c1cc(/N=N/c2ccc(S(=O)(=O)Nc3ccccn3)cc2)ccc1O` [SULFASALAZINE], the IC50 entry in assay [1], in assay [2], in assay [3], in assay [4], in assay [5] (insect cells) and in assay [6] was “Not Active” throughout. Further, the IC50 result in assay [7] was “Not Active”. For the same compound, in assay [7], the Ki result is “Not Active”.
Regarding `CCN(CC)CCNC(=O)c1cc(Cl)c(N)cc1OC` [METOCLOPRAMIDE], the IC50 result in assay [1], in assay [2], in assay [3], in assay [4], in assay [5] (insect cells) and in assay [6] was “Not Active” in each case. Besides, in assay [7], the IC50 result is on record as “Not Active”. Moreover, the Ki entry in assay [7] is given as “Not Active”.
On to `COC(=O)Nc1nc2ccc(C(=O)c3ccccc3)cc2[nH]1` [MEBENDAZOLE], for which the IC50 entry in assay [1], in assay [2], in assay [3], in assay [4], in assay [5] (insect cells) and in assay [6] was “Not Active” throughout. In assay [7], the 50% inhibitory concentration (IC50) result was “Not Active”. Also, the Ki result in assay [7] is reported as “Not Active”.
In the case of `Cc1ccnc(NS(=O)(=O)c2ccc(N)cc2)n1` [SULFAMERAZINE], the IC50 entry in assay [1], in assay [2], in assay [3], in assay [4], in assay [5] (insect cells) and in assay [6] was “Not Active” throughout. The IC50 result in assay [7] is on record as “Not Active”. Further, in assay [7], the Ki result is on record as “Not Active”.
For `Cc1cccc(C)c1NC(=O)C(C)N` (stereo not given) [TOCAINIDE], the IC50 entry in assay [1], in assay [2], in assay [3], in assay [4], in assay [5] (insect cells) and in assay [6] was “Not Active” each time. The IC50 entry in assay [7] is on record as “Not Active”. In assay [7], the Ki entry is recorded as “Not Active”.
For `CC#C[C@]1(O)CC[C@H]2[C@@H]3CCC4=CC(=O)CCC4=C3[C@@H](c3ccc(N(C)C)cc3)C[C@@]21C` [MIFEPRISTONE], the IC50 result in assay [1] was “Not Active”; in assay [2], “Not Active”; in assay [3], “Not Active”; in assay [4], “Not Active”; in assay [5] (read-out: IC50) it was 21.4 µM; in assay [6], “Not Active”. Moreover, in assay [7], the IC50 entry is given as “Not Active”. In addition, in assay [7], the Ki entry is recorded as “Not Active”.
For `C[C@]12CCC(=O)C[C@@H]1CC[C@@H]1[C@@H]2CC[C@]2(C)[C@@H](O)CC[C@@H]12` [STANOLONE], the IC50 result in assay [1], in assay [2], in assay [3], in assay [4], in assay [5] (insect cells) and in assay [6] was “Not Active” throughout. Further, in assay [7], the IC50 entry is reported as “Not Active”. The Ki entry in assay [7] is “Not Active”.
